Measurements taken from the supplement of paper PMC10307832.

Tests used:
Experiment in all cases: relative viability (nuclei count vs DMSO), 5 days (fraction); higher = more cells survive
Decitabine + Olaparib = compound: Nc1ncn([C@H]2C[C@H](O)[C@@H](CO)O2)c(=O)n1 [Decitabine] + O=C(c1cc(Cc2n[nH]c(=O)c3ccccc23)ccc1F)N1CCN(C(=O)C2CC2)CC1 [Olaparib] (partner 8 µM)
Procedure, shortened: (§1)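 Lung cancer cell lines, seeded in 1536-well plates, were treated the following day by pin tool with a single drug or with five library-drug doses (not always all listed) in √10 steps on top of a fixed anchor-drug dose. Cells were fixed and nuclei stained in one step after 5 days, and nuclei were counted. Relative viability is the nuclei count for treated wells divided by that for vehicle wells, reported as medians of duplicate plates.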

Cediranib + Foretinib = compound: COc1cc2c(Oc3ccc4[nH]c(C)cc4c3F)ncnc2cc1OCCCN1CCCC1 [Cediranib] + COc1cc2c(Oc3ccc(NC(=O)C4(C(=O)Nc5ccc(F)cc5)CC4)cc3F)ccnc2cc1OCCCN1CCOCC1 [Foretinib] (partner 0.25 µM)
Procedure, shortened: as §1

[1] = compound: O=C(C[C@H]1NCCC[C@@H]1O)Cn1cnc2cc(Br)c(Cl)cc2c1=O (racemic) [Halofuginone] + CC1(C)CCC(c2ccc(Cl)cc2)=C(CN2CCN(c3ccc(C(=O)NS(=O)(=O)c4ccc(N[C@H](CCN5CCOCC5)CSc5ccccc5)c(S(=O)(=O)C(F)(F)F)c4)cc3)CC2)C1 [Navitoclax] (partner 0.5 µM)
Procedure, shortened: as §1

Decitabine + Dasatinib = compound: Nc1ncn([C@H]2C[C@H](O)[C@@H](CO)O2)c(=O)n1 [Decitabine] + Cc1nc(Nc2ncc(C(=O)Nc3c(C)cccc3Cl)s2)cc(N2CCN(CCO)CC2)n1 [Dasatinib] (partner 0.075 µM)
Procedure, shortened: as §1

Cell Line: EPLC-272H
- relative viability (Decitabine + Olaparib; first compound 0.04 µM): 0.32
- relative viability (Decitabine + Olaparib; first compound 0.1265 µM): 0.255
- relative viability (Decitabine + Olaparib; first compound 1.265 µM): 0.15
- relative viability (Decitabine + Olaparib; first compound 4 µM): 0.337
- relative viability (Cediranib + Foretinib; first compound 0.04 µM): 0.634
- relative viability (Cediranib + Foretinib; first compound 0.4 µM): 0.634
- relative viability (Cediranib + Foretinib; first compound 4 µM): 0.693
- relative viability ([1]; first compound 0.001 µM): 1.14
- relative viability ([1]; first compound 0.003162 µM): 1.22
- relative viability ([1]; first compound 0.01 µM): 0.945
- relative viability ([1]; first compound 0.03162 µM): 1.21
- relative viability ([1]; first compound 0.1 µM): 1.17
- relative viability (Decitabine + Dasatinib; first compound 0.1265 µM): 0.297
- relative viability (Decitabine + Dasatinib; first compound 0.4 µM): 0.118
- relative viability (Decitabine + Dasatinib; first compound 1.265 µM): 0.232
- relative viability (Decitabine + Dasatinib; first compound 4 µM): 0.144

Cell Line: H3255
- relative viability (Decitabine + Olaparib; first compound 0.04 µM): 0.487
- relative viability (Decitabine + Olaparib; first compound 0.1265 µM): 0.469
- relative viability (Decitabine + Olaparib; first compound 0.4 µM): 0.415
- relative viability (Decitabine + Olaparib; first compound 1.265 µM): 0.43
- relative viability (Decitabine + Olaparib; first compound 4 µM): 0.378
- relative viability (Cediranib + Foretinib; first compound 0.04 µM): 0.788
- relative viability (Cediranib + Foretinib; first compound 0.4 µM): 0.821
- relative viability (Cediranib + Foretinib; first compound 1.265 µM): 0.732
- relative viability (Cediranib + Foretinib; first compound 4 µM): 0.932
- relative viability ([1]; first compound 0.001 µM): 0.541
- relative viability ([1]; first compound 0.003162 µM): 0.481
- relative viability ([1]; first compound 0.01 µM): 0.548
- relative viability ([1]; first compound 0.03162 µM): 0.495
- relative viability ([1]; first compound 0.1 µM): 0.553
- relative viability (Decitabine + Dasatinib; first compound 0.1265 µM): 0.341
- relative viability (Decitabine + Dasatinib; first compound 0.4 µM): 0.251
- relative viability (Decitabine + Dasatinib; first compound 1.265 µM): 0.351
- relative viability (Decitabine + Dasatinib; first compound 4 µM): 0.252

Cell Line: HARA
- relative viability (Decitabine + Olaparib; first compound 0.04 µM): 0.379
- relative viability (Decitabine + Olaparib; first compound 0.1265 µM): 0.248
- relative viability (Decitabine + Olaparib; first compound 0.4 µM): 0.28
- relative viability (Decitabine + Olaparib; first compound 1.265 µM): 0.147
- relative viability (Decitabine + Olaparib; first compound 4 µM): 0.168
- relative viability (Cediranib + Foretinib; first compound 0.04 µM): 0.92
- relative viability (Cediranib + Foretinib; first compound 0.4 µM): 0.766
- relative viability (Cediranib + Foretinib; first compound 1.265 µM): 0.868
- relative viability (Cediranib + Foretinib; first compound 4 µM): 0.706
- relative viability ([1]; first compound 0.001 µM): 1.14
- relative viability ([1]; first compound 0.003162 µM): 1.11
- relative viability ([1]; first compound 0.01 µM): 1.14
- relative viability ([1]; first compound 0.03162 µM): 1.12
- relative viability ([1]; first compound 0.1 µM): 1.14
- relative viability (Decitabine + Dasatinib; first compound 0.04 µM): 0.311
- relative viability (Decitabine + Dasatinib; first compound 0.1265 µM): 0.261
- relative viability (Decitabine + Dasatinib; first compound 0.4 µM): 0.232
- relative viability (Decitabine + Dasatinib; first compound 1.265 µM): 0.257
- relative viability (Decitabine + Dasatinib; first compound 4 µM): 0.138

Cell Line: HCC-15
- relative viability (Decitabine + Olaparib; first compound 0.04 µM): 0.472
- relative viability (Decitabine + Olaparib; first compound 0.1265 µM): 0.363
- relative viability (Decitabine + Olaparib; first compound 0.4 µM): 0.253
- relative viability (Decitabine + Olaparib; first compound 1.265 µM): 0.178
- relative viability (Decitabine + Olaparib; first compound 4 µM): 0.168
- relative viability (Cediranib + Foretinib; first compound 0.04 µM): 1.01
- relative viability (Cediranib + Foretinib; first compound 0.4 µM): 0.946
- relative viability (Cediranib + Foretinib; first compound 1.265 µM): 1.07
- relative viability (Cediranib + Foretinib; first compound 4 µM): 1.09
- relative viability ([1]; first compound 0.001 µM): 0.704
- relative viability ([1]; first compound 0.003162 µM): 0.732
- relative viability ([1]; first compound 0.01 µM): 0.686
- relative viability ([1]; first compound 0.03162 µM): 0.651
- relative viability ([1]; first compound 0.1 µM): 0.593
- relative viability (Decitabine + Dasatinib; first compound 0.04 µM): 0.625
- relative viability (Decitabine + Dasatinib; first compound 0.1265 µM): 0.581
- relative viability (Decitabine + Dasatinib; first compound 0.4 µM): 0.408
- relative viability (Decitabine + Dasatinib; first compound 1.265 µM): 0.361
- relative viability (Decitabine + Dasatinib; first compound 4 µM): 0.333

Cell Line: HCC-78
- relative viability (Decitabine + Olaparib; first compound 0.04 µM): 0.458
- relative viability (Decitabine + Olaparib; first compound 0.1265 µM): 0.433
- relative viability (Decitabine + Olaparib; first compound 0.4 µM): 0.382
- relative viability (Decitabine + Olaparib; first compound 1.265 µM): 0.272
- relative viability (Decitabine + Olaparib; first compound 4 µM): 0.241
- relative viability (Cediranib + Foretinib; first compound 0.04 µM): 0.584
- relative viability (Cediranib + Foretinib; first compound 0.1265 µM): 0.73
- relative viability (Cediranib + Foretinib; first compound 0.4 µM): 0.576
- relative viability (Cediranib + Foretinib; first compound 1.265 µM): 0.58
- relative viability (Cediranib + Foretinib; first compound 4 µM): 0.593
- relative viability ([1]; first compound 0.001 µM): 0.75
- relative viability ([1]; first compound 0.003162 µM): 0.758
- relative viability ([1]; first compound 0.01 µM): 0.725
- relative viability ([1]; first compound 0.03162 µM): 0.817
- relative viability ([1]; first compound 0.1 µM): 0.435
- relative viability (Decitabine + Dasatinib; first compound 0.04 µM): 0.269
- relative viability (Decitabine + Dasatinib; first compound 0.1265 µM): 0.334
- relative viability (Decitabine + Dasatinib; first compound 0.4 µM): 0.361
- relative viability (Decitabine + Dasatinib; first compound 1.265 µM): 0.285
- relative viability (Decitabine + Dasatinib; first compound 4 µM): 0.208

Cell Line: HCC-366
- relative viability (Decitabine + Olaparib; first compound 0.04 µM): 0.11
- relative viability (Decitabine + Olaparib; first compound 0.1265 µM): 0.0915
- relative viability (Decitabine + Olaparib; first compound 0.4 µM): 0.066
- relative viability (Decitabine + Olaparib; first compound 1.265 µM): 0.0346
- relative viability (Decitabine + Olaparib; first compound 4 µM): 0.0247
- relative viability (Cediranib + Foretinib; first compound 0.04 µM): 0.935
- relative viability (Cediranib + Foretinib; first compound 0.1265 µM): 0.902
- relative viability (Cediranib + Foretinib; first compound 0.4 µM): 0.772
- relative viability (Cediranib + Foretinib; first compound 1.265 µM): 0.94
- relative viability (Cediranib + Foretinib; first compound 4 µM): 1.01
- relative viability ([1]; first compound 0.001 µM): 1.05
- relative viability ([1]; first compound 0.003162 µM): 1.07
- relative viability ([1]; first compound 0.01 µM): 1.04
- relative viability ([1]; first compound 0.03162 µM): 1.04
- relative viability ([1]; first compound 0.1 µM): 0.0551
- relative viability (Decitabine + Dasatinib; first compound 0.04 µM): 0.608
- relative viability (Decitabine + Dasatinib; first compound 0.1265 µM): 0.632
- relative viability (Decitabine + Dasatinib; first compound 0.4 µM): 0.567
- relative viability (Decitabine + Dasatinib; first compound 1.265 µM): 0.195
- relative viability (Decitabine + Dasatinib; first compound 4 µM): 0.128

Cell Line: HCC-827
- relative viability (Decitabine + Olaparib; first compound 0.04 µM): 0.146
- relative viability (Decitabine + Olaparib; first compound 0.1265 µM): 0.279
- relative viability (Decitabine + Olaparib; first compound 0.4 µM): 0.218
- relative viability (Decitabine + Olaparib; first compound 1.265 µM): 0.182
- relative viability (Decitabine + Olaparib; first compound 4 µM): 0.205
- relative viability (Cediranib + Foretinib; first compound 0.04 µM): 1.2
- relative viability (Cediranib + Foretinib; first compound 0.4 µM): 0.986
- relative viability (Cediranib + Foretinib; first compound 1.265 µM): 1.05
- relative viability (Cediranib + Foretinib; first compound 4 µM): 1.03
- relative viability ([1]; first compound 0.001 µM): 1.05
- relative viability ([1]; first compound 0.003162 µM): 1.05
- relative viability ([1]; first compound 0.01 µM): 1.01
- relative viability ([1]; first compound 0.03162 µM): 1.01
- relative viability ([1]; first compound 0.1 µM): 0.852
- relative viability (Decitabine + Dasatinib; first compound 0.04 µM): 0.139
- relative viability (Decitabine + Dasatinib; first compound 0.1265 µM): 0.317
- relative viability (Decitabine + Dasatinib; first compound 0.4 µM): 0.325
- relative viability (Decitabine + Dasatinib; first compound 1.265 µM): 0.284
- relative viability (Decitabine + Dasatinib; first compound 4 µM): 0.267

Cell Line: HOP-62
- relative viability (Decitabine + Olaparib; first compound 0.04 µM): 0.108
- relative viability (Decitabine + Olaparib; first compound 0.1265 µM): 0.141
- relative viability (Decitabine + Olaparib; first compound 0.4 µM): 0.0882
- relative viability (Decitabine + Olaparib; first compound 1.265 µM): 0.0978
- relative viability (Decitabine + Olaparib; first compound 4 µM): 0.132
- relative viability (Cediranib + Foretinib; first compound 0.04 µM): 1.3
- relative viability (Cediranib + Foretinib; first compound 0.1265 µM): 1.15
- relative viability (Cediranib + Foretinib; first compound 0.4 µM): 1.1
- relative viability (Cediranib + Foretinib; first compound 1.265 µM): 1.15
- relative viability (Cediranib + Foretinib; first compound 4 µM): 1.22
- relative viability ([1]; first compound 0.001 µM): 1.14
- relative viability ([1]; first compound 0.003162 µM): 0.785
- relative viability ([1]; first compound 0.01 µM): 0.933
- relative viability ([1]; first compound 0.03162 µM): 1.04
- relative viability ([1]; first compound 0.1 µM): 0.873
- relative viability (Decitabine + Dasatinib; first compound 0.04 µM): 0.634
- relative viability (Decitabine + Dasatinib; first compound 0.1265 µM): 0.622
- relative viability (Decitabine + Dasatinib; first compound 0.4 µM): 0.284
- relative viability (Decitabine + Dasatinib; first compound 1.265 µM): 0.14
- relative viability (Decitabine + Dasatinib; first compound 4 µM): 0.147
